Reference: patent US12497359B2, “Acrylamide derivatives” (NRG Therapeutics Ltd, priority 2020, dated 2025)

How the values were obtained:
[1] = system: mPTP; assay: mPTP activity assay in isolated rat liver mitochondria (Ca2+ retention, Fluo5N, FLIPR); type: biochemical; conditions: for mPTP Rat liver pIC50*: isolated rat liver mitochondria, average value from multiple experiments (n ≥ 2)
How it was run: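 Freshly isolated female Sprague Dawley rat liver mitochondria in pH 7.4 buffer with 10 mM succinate, 1 μM rotenone and 2 μM Fluo5N, preincubated 10 min at RT with compound (30 μM to 1 nM). CaCl2 bolus (75 μM) added; IC50 from 10 min fluorescence, normalised to DMSO and 5 μM cyclosporin A.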

[2] = Microsomal clearance assay, rat liver microsomes; type: in vitro ADME; conditions: average value from two experiments, read-out: Rat liver microsomes intrinsic clearance (CLint)
Protocol: The microsomal stability of test compounds was evaluated using rat liver microsomes (BioIVT) with and without the cofactors nicotinamide adenine dinucleotide phosphate (NADPH) and uridine-diphosphate-glucuronic acid (UDPGA). Reactions were performed in a final volume of 250 μl pre-warmed (37° C.) 100 mM phosphate buffer containing 5 mM MgCl2, 0.025 mg/ml alamethicin, and 0.5 mg/ml rat liver microsomes. NADPH and UDPGA were included at 1 mM and 2 mM respectively, where appropriate. Reactions were started with the addition of 1 μM (final concentration) test compound. Verapamil was used as the positive control. Solutions were incubated in a water bath at 37° C. and aliquots collected at 0.5, 5, 15, 30 and 60 min. Reactions were stopped by the addition of 5 volumes of cold acetonitrile with internal standards (200 nM caffeine and 100 nM tolbutamide). Samples were centrifuged at 3220 g for 40 min. An aliquot of supernatant was diluted 1:1 In ultra-pure H20, then used for LC-MS/MS analysis. Peak areas were determined from extracted ion chromatograms. The slope value, k, was determined by linear regression of the natural logarithm of the remaining percentage of the parent drug vs. incubation time curve. The in vitro half-life (in vitro t1/2) was determined from the slope value: in vitro t1/2=0.693/k. Conversion of the in vitro t1/2 (min) into the in vitro intrinsic clearance (in vitro CLint, in μL/min/mg protein) was done using the following equation (mean of duplicate determinations): in vitro Clint=(0.693/t1/2)*(Vol of incubation (μl)/amount of protein (mg)).

O=C(/C=C/c1ccc2cn[nH]c2c1)N[C@@H]1CCc2ccccc21 [Example 3, (R,E)-N-(2,3-dihydro-1H-inden-1-yl)-3-(1H-indazol-6-yl)acrylamide]
mPTP Rat liver pIC50* [1]: 7.2 | microsomal CLint at 1 µM [2]: 52 µL/min/mg

C[C@@H]1COc2ccccc2[C@@H]1NC(=O)/C=C/c1ccc2cn[nH]c2c1 (single isomer, unassigned) [Example 15d, (E)-3-(1H-indazol-6-yl)-N-(3-methylchroman-4-yl)acrylamide]
mPTP Rat liver pIC50* [1]: 7.6 | microsomal CLint at 1 µM [2]: < 3 µL/min/mg

C[C@H]1Cc2ccccc2[C@@H]1NC(=O)/C=C/c1ccc2cn[nH]c2c1 (single isomer, unassigned) [Example 14c]
activity in the rat liver mitochondria assay ([1]; comparison among Example compounds, in words): highest activity | mPTP Rat liver pIC50* [1]: 7.9

COCc1ccccc1NC(=O)/C=C/c1ccc2cn[nH]c2c1 [Example 29, (E)-3-(1H-indazol-6-yl)-N-(2-(methoxymethyl)phenyl)acrylamide]
mPTP Rat liver pIC50* [1]: 7.1 | microsomal CLint at 1 µM [2]: 10 µL/min/mg
